Series [1] is described as follows: Salt curves, viscosity build in cleansing formulations (SLS- or AOS-based blends). In kind it is physicochemical. To be noted: incorporated into typical cleansing formulations with SLS or AOS, cocamidopropyl betaine, cocamide MEA; salt curves FIGS. 1 and 2. The protocol: The generalized cleansing formulations are shown in Table 1, where various anionic surfactants, or blends of anionic surfactants, were added to a betaine and an alkanolamide surfactant and water. The balance of the weight in these formulas is water. […] Salts curves were generated for both sulfate-free blends based on AOS, Sodium C14-16 Olefin Sulfonate (FIG. 2), as well as sodium lauryl sulfate-based blends (FIG. 1). The salt curves in FIG. 1 are for the following: 1) Sodium Lauryl Sulfate (SLS) alone: 2) Sodium Lauryl Sulfate:Water, 2:1; 3) Sodium Lauryl Sulfate:Disodium Laurylglucosides Hydroxypropyl Citrate 2:1; and 4) Sodium Lauryl Sulfate:Disodium Laurylglucosides Hydroxypropyl Citrate, 1:1. The salt curves in FIG. 2 are for the following: 1) Sodium C14-16 Olefin Sulfonate (AOS) alone: 2) Sodium C14-16 Olefin Sulfonate:Water, 2:1; 3) Sodium C14-16 Olefin Sulfonate:Disodium Laurylglucosides Hydroxypropyl Citrate, 2:1; and 4) Sodium C14-16 Olefin Sulfonate:Disodium Laurylglucosides Hydroxypropyl Citrate, 1:1. [table] […] Some formulations can achieve desired viscosity levels without any added salt, meeting the demand for that type of claim by some shampoo manufacturers.

The test system of series [2] is Zein. Put plainly: Zein Test, irritation potential of surfactants / cleansing formulations by amount of zein solubilized. Also noted: species or system corn. To be noted: anionic cleanser, FIG. 3. Here is the method:
Surfactants of the current invention were tested for their ability to reduce the irritation potential of cleansing formulations. We used the Zein Test [referenced in J. Surfact.
The Zein test is intended for determining the irritation potential of a surfactant or surfactant-based product. Zein, a corn protein similar to keratin present in the skin and hair, is insoluble in water unless it is denatured by an irritant. In this test, the irritant is a surfactant or surfactant-based product, and irritation potential is predicted by the amount of zein solubilized.

From US20230024192A1, “Citrate-Functionalized Polymeric Surfactants Based Upon Alkyl Polyglucosides” (Colonial Chemical, Inc., priority 2019, published 2023) come the findings set out here.

On to “Disodium Laurylglucosides Hydroxypropyl Citrate”, for which, in series [1], the viscosity build result was “fast and high viscosity build”. For the same substance, in series [2], the “irritation potential in cleansing formulations (Zein Test)” value is listed as “effective at reducing irritation potential”.
